Assay results published in patent EP1401829B1, “NOVEL HETEROCYCLIC ANTIBACTERIAL COMPOUNDS” (Microbiotix, Inc., priority 2001, dated 2002).
In brackets after ≈: the same amount, converted by molar mass. Marks after values point to notes of the source that are not given here.

Experiments:
[1] = tested on: MRSA 1094; test: In vivo efficacy of Compound 70 in mouse models; design: species or system Staphylococcus aureus; details: mice, 10^7 CFU/mouse + 5% Mucin, regimen 2 (t=0,2)
Experimental: (§1) Swiss Webster mice, ca. 20 g each, were infected with Staphylococcus aureus (Smith strain) by the intraperitoneal route. Test compounds (2, 4, 5, 6, 7, 8, 10, 12) were dissolved in 10% dimethylsulfoxide in peanut oil to a concentration of 2 mg/ml. Vancomycin was used as positive control drug (i.e., protection from lethal infection). Fifteen minutes after infection, test compounds, vancomycin, or vehicle alone were given intraperitoneally to groups of five mice each. Animals were monitored for three days, and the number of mice surviving was tabulated for each treatment.
(§2) Using the same basic procedure as described above, the in vivo efficacy of Compound 70 was also evaluated at various doses in mice infected with S. aureaus (Smith), MRSA 1094, Enterococcus faecalis, or vancomycin-resistant Enterococcus faecalis strain VRE 700802. […] Negative controls were mice infected that received no treatment. Mucin was employed as an adjuvant to facilitate bacterial infection in mice, where indicated.

[2] = tested on: VRE 700802; test: In vivo efficacy of Compound 70 in mouse models; design: species or system Enterococcus faecalis; details: mice, 3x10^8 CFU/mouse + 5% Mucin
Experimental: as §1, §2

[3] = Overt toxicity observed in mouse infection models; type: in vivo; details: mice; at therapeutic doses (doses providing survival above no treatment control)
Experimental: as §2

[4] = tested on: MSSA108; test: MIC against clinically relevant strains; type: cell-based; details: Staphylococcus aureus; methicillin sensitive S. aureus strain
[5] = tested on: Staphylococcus aureus (Smith strain); test: Protection of mice from lethal intraperitoneal infection, compound given intraperitoneally; type: in vivo; details: Swiss Webster mice, groups of five, 15 minutes after infection
Experimental: • Figures 1A and 1B. Figure 1A is a diagram of the structural formula for Compound 2 (i.e., 3-{4-[1-(1-cyclopropyl-3-carboxy-4-oxo-6-fluoro-7-quinolyl)-4-piperazinyl]butyl}-6-(3-ethyl- 4-methylanilino)uracil). • Figure 1B is a bar graph showing number of survivors in each group of five mice at 24 hours after intraperitoneal infection with 1 x 10^8 colony forming units (CFU) of Staphylococcus aureus (Smith strain) and followed 15 minutes post infection by administration of Compound 2 at a dose of 0 (Vehicle Control), 1, 3, and 10 mg of compound per kg of body weight. Vancomycin at a dose of 10 mg/kg of body weight served as a positive control for antibiotic activity. See text for details. • Figures 2A and 2B. Figure 2A is a diagram of the structural formula for Compound 10 (i.e., 3-{4-[1-(1-cyclopropyl-3-carboxy-4-oxo-6-fluoro-7-quinolyl)-4-piperazinyl]butyl}-6-(3-ethyl-4-methylanilino)uracil methanesulfonate). • Figure 2B is a bar graph showing number of survivors of a group of five mice at 24 hours after intraperitoneal infection with Staphylococcus aureus (Smith strain) as in Figure 1B, except that Compound 10 was administered to each animal at 0, 0.1, 0.3, 1.0, 3.0, and 10 mg/kg body weight at 15 minutes post infection. Controls were the same as in Figure 1B. See text for details. • Figures 3A and 3B. […] Abbreviations: cPr is cyclopropyl; Et is ethyl; dFPh is 2,4-difluorophenyl. • Figure 3B is a bar graph showing number of survivors in each group of five mice at 24 hours after intraperitoneal infection with Staphylococcus aureus (Smith strain) as in Figure 1, except that 15 minutes after infection, the mice in each group received a dose of 0.5 mg/kg of body weight of compound 10, 4, 5, 6, 7, 8, or 12. Controls were the same as in Figure 1. See text for details.
as §1

[6] = dose 50 mg/kg, regimen 2 (t=0,2)
[7] = dose 50 mg/kg, regimen 2 (t=0,3)
[8] = dose 75 mg/kg, regimen 2 (t=0,2-)
[9] = dose 75 mg/kg, regimen 2 (t=0,3)
[10] = dose 100 mg/kg, regimen 1 (t=0)
[11] = dosage range 1-10 mg/kg body weight intraperitoneally

Row | Structure (SMILES) | % Survival at 72 hours ([1]; dose 25 mg/kg) | % Survival at 72 hours ([1]; dose 50 mg/kg) | % Survival at 72 hours ([1]; dose 75 mg/kg) | % Survival at 72 hours [2, 6] | Mean Survival Time [2, 6] [h] | % Survival at 72 hours [2, 7] | Mean Survival Time [2, 7] [h] | % Survival at 72 hours [2, 8] | Mean Survival Time [2, 8] [h] | % Survival at 72 hours [2, 9] | Mean Survival Time [2, 9] [h] | % Survival at 72 hours [2, 10] | Mean Survival Time [2, 10] [h] | overt toxicity [3] | MIC [4] [µg/mL] | protection of infected mice (number of survivors) ([5]; 0.3 mg per kg body weight intraperitoneally) | protection of infected mice (number of survivors) ([5]; 1 mg/kg or higher intraperitoneally) | protection of infected mice (number of survivors) [5, 11]
1 | CCc1cc(Nc2cc(=O)n(CCCCN3CCN(c4c(F)cc5c(=O)c(C(=O)O)cn(C6CC6)c5c4F)CC3C)c(=O)[nH]2)ccc1C (centres unmarked) [Compound 70, 3-{4-[1-(1-cyclopropyl-3-carboxy-4-oxo-6,8-difluoro-7-quinolyl)-3-methyl-4-piperazinyl]butyl}-6-(3-ethyl-4-methylanilino)uracil] | 0% (0/5) | 55% (11/20)* | 80% (4/5) | 10% (1/10) | 45 | 0% (0/5) | 35 | 0% (0/5) | 50 | 40% (2/5) | 50 | 0% (0/5) | 34 | no overt toxicity | – | – | – | –
2 | CCc1cc(Nc2cc(=O)n(CCCCN3CCN(c4cc5c(cc4F)c(=O)c(C(=O)O)cn5C4CC4)CC3)c(=O)[nH]2)ccc1C.CS(=O)(=O)O [Compound 10, 3-{4-[1-(1-cyclopropyl-3-carboxy-4-oxo-6-fluoro-7-quinolyl)-4-piperazinyl]butyl}-6-(3-ethyl-4-methylanilino)uracil methanesulfonate] | – | – | – | – | – | – | – | – | – | – | – | – | – | – | 0.625 | one of five | complete protection | provided protection in the same dosage range as Compound 2
3 | CCc1cc(Nc2cc(=O)n(CCCCN3CCN(c4cc5c(cc4F)c(=O)c(C(=O)O)cn5C4CC4)CC3)c(=O)[nH]2)ccc1C [Compound 2, 3-{4-[1-(1-cyclopropyl-3-carboxy-4-oxo-6-fluoro-7-quinolyl)-4-piperazinyl]butyl}-6-(3-ethyl-4-methylanilino)uracil] | – | – | – | – | – | – | – | – | – | – | – | – | – | – | 0.313 (≈ 0.496 µM) | – | – | all five
